What was measured:
[1] = Body weight gain and food intake in DIO mice; type: in vivo, C57Bl/6 mice; conditions: 25 days post treatment, vs non-treated obese mice
Excerpt: All animal studies were approved by the Committee on Animal Care, Massachusetts Institute of Technology. 6-week-old male wild-type mice and 10-week-old male diet-induced obese mice, of the C57Bl/6 strain, were used in current studies. High-fat-diet (TD-06414, 60/Fat) was purchased from Harlan Laboratories, and was used to induce and maintain obesity in C57Bl/6 mice.
Standard diet fed or high-fat-diet fed C57Bl/6 mice were intravenous injected with either NP constructs or free drug (rosiglitazone or 16,16-dimethyl-PGE2) at the drug dose of 80 mg/kg, every second day. Free Rosi was dissolved in DMSO followed by dilution in saline.
The high-fat-diet induced obese model was used to assess the possible impact of the two peptide-NP-Rosi on body weight, tissue histology, and molecular expression profiles. There was no difference in body weight gain between the mice treated with Rosi (in solution and non-targeted NP forms) and non-treated obese mice (FIGS. 5A and B).

[2] = tested on: stromal vascular fragments (SVF) from WAT; assay: qRT-PCR of integrin expression in SVF treated in vitro; type: cell-based, mice; conditions: Rosi 1 μM
Experimental: (§1) WAT was dissected and extensively washed with Hank's Balanced Salt Solution (HBSS, Invitrogen). Tissues were cut into small pieces using a surgical scissor, and digested with 0.1% collagenase A in HBSS and 1% bovine serum albumin (SigmaAldrich) for 30 minutes at 37 C with gentle shaking. The digested tissues were suspended in Dulbecco's modified Eagle's medium containing 10% fetal bovine serum, and then passed through a 100 μm cell strainer (BD Falcon) to remove debris. Subsequently, cell suspension was centrifuged for 10 minutes at 300×g. 3. After removal of the floating cell layer and supernatant, the cell pellet was resuspended in 10 ml of HBSS, and then filtered through a 40 μm cell strainer (BD Falcon). The filtered cell suspension was layered on top of a Histopaque-1077 solution (10 ml) in a 50 ml tube, and then centrifuged at 400 g for 30 min at room temperature. The SVF cell layer at the gradient interface was collected and washed with HBSS. Cell counts and viability assessment were performed. Primary SVF or sorted cells were maintained in DMEM plus 10% FCS, 1% penicillin/streptomycin, and 10 ng/ml murine bFGF (R&D Systems).
(§2) Angiogenic vessels usually express high levels of integrins, particularly αv and β3 subunits. […]

[3] = Serological parameters in fasted DIO mice; type: in vivo, C57Bl/6 mice; conditions: 25 days
Experimental: Serum levels of free fatty acid, glucose, triglycerides and cholesterol contents from fasted obese mice were determined by standard kits from Cayman Chemical Co. (Ann Arbor, Mich.). Serum insulin from fasted obese mice was determined by ELISA method according to manufacturer's protocol (Millipore, Billerica, Mass.).
Serum was collected from DIO mice that were fasted for five hours following 25 days of treatments, and analyzed for levels of serological parameters.

[4] = tested on: CD31+ SVF; assay: Integrinαv antibody staining of CD31-sorted SVF; type: cell-based, mice; conditions: in vitro
Experimental: Angiogenic vessels usually express high levels of integrins, particularly αv and β3 subunits. To evaluate whether Rosi-loaded NPs can effectively induce expression of integrins on vascular cells, the stromal vascular fragments (SVF) were isolated from WAT, followed by treatment with Rosi (1 μM) in either solution or non-targeted NP form. CD31+ SVF was sorted and stained with Integrinαv antibody, Isolectin B4 and DAPI. C57Bl/6 mice were treated with Rosi, NP-Rosi, iRGD-NP-Rosi or P3-NP-Rosi for two weeks (n=3). IngWAT, epiWAT and livers were dissected and representative samples were imaged under IVIS imaging system. Inguinal WAT and epididymal WAT were dissected and representative samples were photographed.
It should also be noted that no evidence of cellular toxicity was observed under all the conditions. SVFs were sorted with an endothelial marker CD31, and stained cells with an Integrinαv antibody.

[5] = tested on: stromal vascular fragments (SVF) from WAT; assay: Proliferation and cellular toxicity of SVF; type: cell-based, mice; conditions: in vitro
Experimental: as §1, §2

CN(CCOc1ccc(CC2SC(=O)NC2=O)cc1)c1ccccn1 (racemic) [Rosi, (RS)-5-[4-(2-[methyl(pyridin-2-yl)amino]ethoxy)benzyl]thiazolidine-2,4-dione]
body weight gain [1]: no difference
expression level of Integrinαv on SVF (qRT-PCR) [2]: elevated the expression levels of Integrinαv
reduction of serum insulin [3]: 3 folds
Integrinαv on CD31-sorted SVF (antibody staining) [4]: upregulated
proliferation of SVF [5]: stimulated the proliferation of SVF
